Results taken from US7375107B2 (priority 2003, dated 2008).

Assays:
[1] = target: T1, epithelial sodium channels (ENaC), airway epithelial monolayers (Canis lupus familiaris, UniProt A0A8I3MKE6+A0A8I3Q679+Q95165); test: Sodium channel blocking activity: lumenal drug inhibition of airway epithelial sodium currents (short circuit current, ISC) in Ussing chambers; format: cell-based, canine; conditions: for Fold Amiloride** (PSA 4022 = 100): relative potency for PSA 4022 = 100 using EC50 from PSA 4022 in same run
T1 sequence (A0A8I3Q679 1-649): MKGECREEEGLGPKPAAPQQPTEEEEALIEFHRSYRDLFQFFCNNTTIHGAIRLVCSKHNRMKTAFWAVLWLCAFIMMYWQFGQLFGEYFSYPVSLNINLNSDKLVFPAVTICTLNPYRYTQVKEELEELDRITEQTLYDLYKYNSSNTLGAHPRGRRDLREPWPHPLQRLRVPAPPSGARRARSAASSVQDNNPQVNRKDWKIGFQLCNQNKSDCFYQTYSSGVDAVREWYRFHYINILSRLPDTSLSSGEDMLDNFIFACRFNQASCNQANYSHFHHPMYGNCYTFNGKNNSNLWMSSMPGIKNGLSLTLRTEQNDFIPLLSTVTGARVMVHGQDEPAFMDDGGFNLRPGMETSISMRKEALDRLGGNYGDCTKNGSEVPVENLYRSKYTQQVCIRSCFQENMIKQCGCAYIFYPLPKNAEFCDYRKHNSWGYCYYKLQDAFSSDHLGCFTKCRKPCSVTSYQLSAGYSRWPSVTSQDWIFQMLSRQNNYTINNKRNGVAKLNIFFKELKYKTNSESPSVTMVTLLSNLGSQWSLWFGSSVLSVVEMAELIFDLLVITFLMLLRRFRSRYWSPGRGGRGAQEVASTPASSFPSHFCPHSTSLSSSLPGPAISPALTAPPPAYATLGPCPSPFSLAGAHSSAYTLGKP
T1 sequence (Q95165 1-641): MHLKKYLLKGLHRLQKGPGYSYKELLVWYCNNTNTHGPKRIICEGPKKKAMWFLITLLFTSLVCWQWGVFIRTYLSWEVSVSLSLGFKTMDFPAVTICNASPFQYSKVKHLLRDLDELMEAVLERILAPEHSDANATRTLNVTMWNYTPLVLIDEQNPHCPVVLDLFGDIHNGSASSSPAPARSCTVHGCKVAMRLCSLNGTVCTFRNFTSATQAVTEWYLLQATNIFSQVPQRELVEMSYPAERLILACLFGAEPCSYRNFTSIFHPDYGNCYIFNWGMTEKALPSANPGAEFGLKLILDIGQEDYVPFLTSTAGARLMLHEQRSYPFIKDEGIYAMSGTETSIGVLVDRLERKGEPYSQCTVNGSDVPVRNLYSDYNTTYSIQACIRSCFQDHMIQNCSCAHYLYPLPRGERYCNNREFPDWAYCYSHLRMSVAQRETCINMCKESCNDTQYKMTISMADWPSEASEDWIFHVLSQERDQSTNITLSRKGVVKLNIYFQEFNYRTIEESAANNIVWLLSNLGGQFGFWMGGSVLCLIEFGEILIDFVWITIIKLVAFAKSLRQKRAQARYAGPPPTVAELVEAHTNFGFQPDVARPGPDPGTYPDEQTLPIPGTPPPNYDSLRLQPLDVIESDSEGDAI
T1 sequence (A0A8I3MKE6 1-646): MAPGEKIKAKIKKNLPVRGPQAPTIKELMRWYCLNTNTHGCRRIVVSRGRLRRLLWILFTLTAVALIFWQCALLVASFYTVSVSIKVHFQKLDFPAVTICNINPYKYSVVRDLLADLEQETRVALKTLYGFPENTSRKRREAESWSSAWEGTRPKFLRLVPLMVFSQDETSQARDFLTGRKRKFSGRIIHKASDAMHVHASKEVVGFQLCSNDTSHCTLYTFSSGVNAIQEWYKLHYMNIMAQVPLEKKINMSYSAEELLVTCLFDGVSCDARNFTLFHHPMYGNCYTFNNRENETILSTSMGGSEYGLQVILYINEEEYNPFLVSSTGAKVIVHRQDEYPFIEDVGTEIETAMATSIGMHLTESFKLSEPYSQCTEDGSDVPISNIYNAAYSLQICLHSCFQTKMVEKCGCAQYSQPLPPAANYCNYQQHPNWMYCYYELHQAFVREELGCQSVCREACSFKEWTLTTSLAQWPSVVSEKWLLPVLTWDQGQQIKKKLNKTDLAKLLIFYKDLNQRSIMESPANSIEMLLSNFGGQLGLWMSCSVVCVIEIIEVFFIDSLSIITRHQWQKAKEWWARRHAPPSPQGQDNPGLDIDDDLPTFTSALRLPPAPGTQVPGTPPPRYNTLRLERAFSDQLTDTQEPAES
Experimental: One assay used to assess mechanism of action and/or potency of the compounds of the present invention involves the determination of lumenal drug inhibition of airway epithelial sodium currents measured under short circuit current (ISC) using airway epithelial monolayers mounted in Ussing chambers. Cells obtained from freshly excised human, dog, sheep or rodent airways are seeded onto porous 0.4 micron Snapwell™ Inserts (CoStar), cultured at air-liquid interface (ALI) conditions in hormonally defined media, and assayed for sodium transport activity (ISC) while bathed in Krebs Bicarbonate Ringer (KBR) in Using chambers. All test drug additions are to the lumenal bath with half-log dose addition protocols (from 1×10^−11 M to 3×10^−5 M), and the cumulative change in ISC (inhibition) recorded. All drugs are prepared in dimethyl sulfoxide as stock solutions at a concentration of 1×10^−2 M and stored at −20° C. Eight preparations are typically run in parallel; two preparations per run incorporate amiloride and/or benzamil as positive controls. After the maximal concentration (5×10^−5 M) is administered, the lumenal bath is exchanged three times with fresh drug-free KBR solution, and the resultant ISC measured after each wash for approximately 5 minutes in duration. Reversibility is defined as the percent return to the baseline value for sodium current after the third wash. All data from the voltage clamps are collected via a computer interface and analyzed off-line.
Dose-effect relationships for all compounds are considered and analyzed by the Prism 3.0 program. IC50 values, maximal effective concentrations, and reversibility are calculated and compared to amiloride and benzamil as positive controls.
Treatment Protocol (Assessment of Activity at t-4 hours): The following variation of the standard protocol was used to assess the durability of response following a single exposure to vehicle control (distilled water), positive control compounds (amiloride or benzamil), or investigational agents. At time zero, vehicle control (distilled water), positive control (amiloride), or investigational compounds were aerosolized from a 4 ml volume using a Pari LC JetPlus nebulizer to free-breathing animals. The nebulizer was driven by compressed air with a flow of 8 liters per minute. The time to deliver the solution was 10 to 12 minutes. Animals were restrained in an upright position in a specialized body harness for 4 hours. At the end of the 4-hour period animals received a single dose of aerosolized ^99mTc-Human serum albumin (3.1 mg/ml; containing approximately 20 mCi) from a Raindrop Nebulizer. Animals were extubated immediately following delivery of the total dose of radio-tracer. A baseline deposition image was obtained immediately after radio-aerosol administration. Serial images of the lung were obtained at 15-minute intervals during the first 2 hours after administration of the radio-tracer (representing hours 4 through 6 after drug administration) and hourly for the next 2 hours after dosing for a total observation period of 4 hours. A washout period of at least 7 days separated dosing sessions with different experimental agents. Statistics: Data were analyzed using SYSTAT for Windows, version 5. Data were analyzed using a two-way repeated ANOVA (to assess overall effects), followed by a paried t-test to identify differences between specific pairs. Significance was accepted when P was less than or equal to 0.05. […] The compounds can be further tested for potency in canine bronchial epithelia using the in vitro assay described above. The results for the compounds of the present invention are reported as fold-enhancement values relative to amiloride.
Sodium Channel Blocking Activity of Selected Alaphatic Pyrazinoylguanidines.

For `CC(C)(C)OC(=O)N=C(NCCCOCCCNC(=N)NC(=O)c1nc(Cl)c(N)nc1N)NC(=O)OC(C)(C)C`, which melting point is on record?
Its melting point is 89 to 93 °C.

For `N=C(NCCCCCCCN)NC(=O)c1nc(Cl)c(N)nc1N` [compound 18705], which “Fold Amiloride** (PSA 4022 = 100)” value [1] is on record?
The value was 8 ± 2 (n = 4).

Which “Fold Amiloride** (PSA 4022 = 100)” value [1] does the source give for `N=C(NCCCCCCN)NC(=O)c1nc(Cl)c(N)nc1N` [compound 18706] here?
The value was 4 ± 1 (n = 4).

Which “Fold Amiloride** (PSA 4022 = 100)” value [1] does the source give for `N=C(N)NCCCCCCCCCNC(=N)NC(=O)c1nc(Cl)c(N)nc1N` [compound 19006] here?
Its value is 11 ± 2 (n = 3).

For `N=C(N)NCCCCCCCNC(=N)NC(=O)c1nc(Cl)c(N)nc1N` [compound 19155], which “Fold Amiloride** (PSA 4022 = 100)” value [1] is on record?
The value was 8 ± 7 (n = 3).

With `CC(C)(C)OC(=O)NCCCCCCCCNC(=N)NC(=O)c1nc(Cl)c(N)nc1N` [compound 19156] as the molecule, how does the “Fold Amiloride** (PSA 4022 = 100)” value [1] read?
The value was 18 ± 2 (n = 2).

With `CC(C)(C)OC(=O)NCCCOCCCNC(=N)NC(=O)c1nc(Cl)c(N)nc1N` [compound 19333] as the molecule, how does the “Fold Amiloride** (PSA 4022 = 100)” value [1] read?
The value was 7 ± 2 (n = 4).

What does the source list for `N=C(NCCCCCCCCCN)NC(=O)c1nc(Cl)c(N)nc1N` [compound 19335]?
Fold Amiloride** (PSA 4022 = 100) [1]: 19 ± 7 (n = 4); EC50 ([1]; sodium channel blocking activity, short circuit current in airway epithelial monolayers): 36 ± 7 nM

For `N=C(NCCCCCCCCN)NC(=O)c1nc(Cl)c(N)nc1N` [compound 19336], which “Fold Amiloride** (PSA 4022 = 100)” value [1] is on record?
Its value is 12 ± 3 (n = 3).

Which “Fold Amiloride** (PSA 4022 = 100)” value [1] does the source give for `CC(C)(C)OC(=O)NCCCCCCCCCNC(=N)NC(=O)c1nc(Cl)c(N)nc1N` [compound 19484] here?
Its value is 12 (n = 1).

For `N=C(NCCCCCCCCCCN)NC(=O)c1nc(Cl)c(N)nc1N` [compound 19487], which “Fold Amiloride** (PSA 4022 = 100)” value [1] is on record?
The value was 37 ± 1 (n = 4).

With `N=C(N)NCCCCCCCCNC(=N)NC(=O)c1nc(Cl)c(N)nc1N` [compound 19604] as the molecule, how does the “Fold Amiloride** (PSA 4022 = 100)” value [1] read?
The value was 63 ± 61 (n = 4).

For `N=C(N)NCCCCCCCCCCNC(=N)NC(=O)c1nc(Cl)c(N)nc1N` [compound 23608], which “Fold Amiloride** (PSA 4022 = 100)” value [1] is on record?
The value was 41 ± 29 (n = 2).

With `N=C(NCCCCCCCCCCCCN)NC(=O)c1nc(Cl)c(N)nc1N` [compound 23609] as the molecule, how does the “Fold Amiloride** (PSA 4022 = 100)” value [1] read?
The value was 66 ± 36 (n = 4).

With `N=C(NCCCCCCCCCCCN)NC(=O)c1nc(Cl)c(N)nc1N` [compound 23682] as the molecule, how does the “Fold Amiloride** (PSA 4022 = 100)” value [1] read?
The value was 51 ± 15 (n = 3).

For `N=C(N)NCCCCCCCCCCCCNC(=N)NC(=O)c1nc(Cl)c(N)nc1N` [compound 23683], which “Fold Amiloride** (PSA 4022 = 100)” value [1] is on record?
The value was 68 ± 48 (n = 6).

With `CC(C)(C)OC(=O)NCCCCCCCCCCCCNC(=N)NC(=O)c1nc(Cl)c(N)nc1N` [compound 23776] as the molecule, how does the “Fold Amiloride** (PSA 4022 = 100)” value [1] read?
Its value is 7 (n = 1).

With `N=C(N)NCCCCCCCCCCCNC(=N)NC(=O)c1nc(Cl)c(N)nc1N` [compound 23991] as the molecule, how does the “Fold Amiloride** (PSA 4022 = 100)” value [1] read?
The value was 20 ± 12 (n = 4).
